Measurements from publication PMC6934184, “Selective DNA-PKcs inhibition extends the therapeutic index of localized radiotherapy and chemotherapy” (The Journal of Clinical Investigation, 2019).

Molecular target: T1, FLT4 (VEGFR3) (Homo sapiens, UniProt P35916)
T1 construct: purchased Thermo Fisher Scientific (Life Technologies) SelectScreen
Assay: SelectScreen Z'LYTE
Assay type: biochemical
Method in brief: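 NU5455 was profiled across the SelectScreen Broad panel of kinase activity and binding assays. Z'LYTE reactions such as CSF1R ran at apparent Km ATP, while the Adapta CAMK1 assay used ATP listed as 10. Values are given as percent.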

T1 sequence (P35916 25-1363): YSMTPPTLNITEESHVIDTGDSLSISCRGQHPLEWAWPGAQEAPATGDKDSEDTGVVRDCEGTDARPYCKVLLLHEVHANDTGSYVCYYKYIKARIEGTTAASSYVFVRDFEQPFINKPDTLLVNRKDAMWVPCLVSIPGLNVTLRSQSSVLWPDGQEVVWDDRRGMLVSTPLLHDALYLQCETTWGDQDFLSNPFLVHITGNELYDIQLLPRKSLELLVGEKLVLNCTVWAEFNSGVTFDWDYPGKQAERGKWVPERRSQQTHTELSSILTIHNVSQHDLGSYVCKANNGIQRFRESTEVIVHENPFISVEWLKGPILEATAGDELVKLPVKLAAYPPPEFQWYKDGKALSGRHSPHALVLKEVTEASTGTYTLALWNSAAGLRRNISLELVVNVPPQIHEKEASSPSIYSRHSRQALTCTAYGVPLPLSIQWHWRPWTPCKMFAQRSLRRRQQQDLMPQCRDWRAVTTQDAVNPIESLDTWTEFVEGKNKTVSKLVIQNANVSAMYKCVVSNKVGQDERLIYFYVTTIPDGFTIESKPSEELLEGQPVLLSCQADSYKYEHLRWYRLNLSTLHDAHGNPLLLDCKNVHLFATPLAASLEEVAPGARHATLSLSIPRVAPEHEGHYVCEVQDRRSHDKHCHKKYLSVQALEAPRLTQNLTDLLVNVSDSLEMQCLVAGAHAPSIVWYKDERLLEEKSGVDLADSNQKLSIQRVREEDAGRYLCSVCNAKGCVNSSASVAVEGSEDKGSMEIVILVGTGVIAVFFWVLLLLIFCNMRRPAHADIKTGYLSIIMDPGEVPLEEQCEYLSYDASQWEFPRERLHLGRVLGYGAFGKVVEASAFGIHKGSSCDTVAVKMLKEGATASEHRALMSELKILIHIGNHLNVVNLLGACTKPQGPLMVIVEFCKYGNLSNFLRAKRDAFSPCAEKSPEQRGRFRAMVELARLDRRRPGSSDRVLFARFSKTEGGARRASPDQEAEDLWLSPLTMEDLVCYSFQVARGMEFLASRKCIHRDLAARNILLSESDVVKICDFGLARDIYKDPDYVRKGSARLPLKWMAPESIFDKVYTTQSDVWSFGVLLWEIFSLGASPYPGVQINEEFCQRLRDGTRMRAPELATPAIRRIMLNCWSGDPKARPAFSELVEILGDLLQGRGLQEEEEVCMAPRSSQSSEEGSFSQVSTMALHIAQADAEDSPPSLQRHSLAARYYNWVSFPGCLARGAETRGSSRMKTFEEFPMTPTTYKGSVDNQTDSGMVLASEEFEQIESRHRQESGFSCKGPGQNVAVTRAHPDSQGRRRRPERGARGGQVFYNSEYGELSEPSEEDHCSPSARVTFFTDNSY

In the case of `CN(C(=O)CN1CCOCC1)c1ccc2sc3c(-c4cccc5c(=O)cc(N6CC7CCC(C6)O7)oc45)cccc3c2c1` [NU5455], the inhibition at 1 µM is reported as 3.5%.
